Measurements taken from patent publication US11572590B2, “Methods for evaluating tumor cell spheroids using 3D microfluidic cell culture device” (Dana-Farber Cancer Institute, Inc., priority 2017, dated 2023).
Like-named read-outs stand apart in the source and are kept apart here.

Experiments:
Assay in all cases: SelectScreen Kinase Profiling, single point inhibition and IC50 for off-target kinases
Assay type in all cases: biochemical
[1] = target: off-target kinases (Homo sapiens, UniProt P10721, D820E); settings: KIT D820E, mutant y, LanthaScreen Binding
off-target kinases (Homo sapiens, UniProt P10721, D820E), sequence (P10721 26-976 D820E): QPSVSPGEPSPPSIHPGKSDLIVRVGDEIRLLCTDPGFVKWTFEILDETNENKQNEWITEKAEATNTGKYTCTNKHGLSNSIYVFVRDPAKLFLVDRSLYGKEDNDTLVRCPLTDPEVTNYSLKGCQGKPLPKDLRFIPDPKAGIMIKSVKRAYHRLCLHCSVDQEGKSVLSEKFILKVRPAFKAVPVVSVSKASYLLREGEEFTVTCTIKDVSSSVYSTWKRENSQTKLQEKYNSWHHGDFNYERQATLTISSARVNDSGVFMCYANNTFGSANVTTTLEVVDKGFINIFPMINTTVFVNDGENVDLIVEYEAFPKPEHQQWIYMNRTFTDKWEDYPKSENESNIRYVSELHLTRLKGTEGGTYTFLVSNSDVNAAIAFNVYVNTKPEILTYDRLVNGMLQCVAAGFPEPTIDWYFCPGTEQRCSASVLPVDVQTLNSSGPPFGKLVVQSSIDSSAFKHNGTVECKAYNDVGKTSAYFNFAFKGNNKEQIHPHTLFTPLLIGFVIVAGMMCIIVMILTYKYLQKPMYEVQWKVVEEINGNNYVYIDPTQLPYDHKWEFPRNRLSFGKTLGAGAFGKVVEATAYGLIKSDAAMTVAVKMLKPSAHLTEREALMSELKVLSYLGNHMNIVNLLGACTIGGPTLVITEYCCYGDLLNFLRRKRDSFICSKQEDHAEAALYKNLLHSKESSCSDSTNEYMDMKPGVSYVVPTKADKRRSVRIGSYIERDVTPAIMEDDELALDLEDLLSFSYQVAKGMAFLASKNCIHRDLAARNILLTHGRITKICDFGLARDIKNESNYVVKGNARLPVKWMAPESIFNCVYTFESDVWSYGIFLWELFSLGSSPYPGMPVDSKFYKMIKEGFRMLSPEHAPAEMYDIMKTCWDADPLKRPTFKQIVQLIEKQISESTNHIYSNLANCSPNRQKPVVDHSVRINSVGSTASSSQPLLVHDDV

[2] = target: off-target kinases (Homo sapiens, UniProt P27448); settings: MARK3, ATP Km app, ZLYTE
off-target kinases (Homo sapiens, UniProt P27448), sequence (P27448 whole entry): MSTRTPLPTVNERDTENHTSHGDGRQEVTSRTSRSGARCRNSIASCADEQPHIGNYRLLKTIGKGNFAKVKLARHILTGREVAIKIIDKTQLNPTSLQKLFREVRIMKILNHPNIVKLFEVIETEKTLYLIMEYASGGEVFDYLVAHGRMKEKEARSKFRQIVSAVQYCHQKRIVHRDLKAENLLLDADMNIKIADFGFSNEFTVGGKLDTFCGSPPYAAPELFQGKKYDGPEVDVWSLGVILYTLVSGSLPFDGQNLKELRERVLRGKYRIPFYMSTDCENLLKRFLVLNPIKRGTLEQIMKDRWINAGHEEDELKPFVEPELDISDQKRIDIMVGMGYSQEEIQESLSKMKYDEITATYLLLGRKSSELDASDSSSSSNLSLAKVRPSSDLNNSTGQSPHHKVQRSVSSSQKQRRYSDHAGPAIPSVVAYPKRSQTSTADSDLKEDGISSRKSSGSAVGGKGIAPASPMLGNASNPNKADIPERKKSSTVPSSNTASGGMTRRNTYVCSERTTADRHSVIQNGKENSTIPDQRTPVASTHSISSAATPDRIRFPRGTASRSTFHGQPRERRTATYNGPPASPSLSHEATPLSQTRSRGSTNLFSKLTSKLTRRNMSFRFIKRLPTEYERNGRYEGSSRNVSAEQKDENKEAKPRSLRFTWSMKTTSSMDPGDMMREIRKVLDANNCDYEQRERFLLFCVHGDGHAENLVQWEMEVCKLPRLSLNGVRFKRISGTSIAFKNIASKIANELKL

[3] = target: off-target kinases (Homo sapiens, UniProt P45983); settings: MAPK8 (JNK1)
[4] = target: off-target kinases (Homo sapiens, UniProt P50613); settings: CDK7/cyclin H/MNAT1, Adapta, ATP Km app
off-target kinases (Homo sapiens, UniProt P50613), sequence (P50613 whole entry): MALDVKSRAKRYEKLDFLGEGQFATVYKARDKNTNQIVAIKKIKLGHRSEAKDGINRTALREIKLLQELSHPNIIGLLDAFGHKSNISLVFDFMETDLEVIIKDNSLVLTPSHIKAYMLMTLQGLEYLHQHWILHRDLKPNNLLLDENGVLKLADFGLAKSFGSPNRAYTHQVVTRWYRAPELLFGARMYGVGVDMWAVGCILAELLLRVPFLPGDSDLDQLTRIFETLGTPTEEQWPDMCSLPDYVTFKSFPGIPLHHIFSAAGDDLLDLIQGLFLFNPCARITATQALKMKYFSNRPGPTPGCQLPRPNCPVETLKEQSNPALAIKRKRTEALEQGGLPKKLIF

[5] = target: off-target kinases (Homo sapiens, UniProt P53350); settings: PLK1, ZLYTE, ATP Km app
[6] = target: off-target kinases (Homo sapiens, UniProt Q13464); settings: ROCK1, ZLYTE, ATP Km app
off-target kinases (Homo sapiens, UniProt Q13464), sequence (Q13464 whole entry): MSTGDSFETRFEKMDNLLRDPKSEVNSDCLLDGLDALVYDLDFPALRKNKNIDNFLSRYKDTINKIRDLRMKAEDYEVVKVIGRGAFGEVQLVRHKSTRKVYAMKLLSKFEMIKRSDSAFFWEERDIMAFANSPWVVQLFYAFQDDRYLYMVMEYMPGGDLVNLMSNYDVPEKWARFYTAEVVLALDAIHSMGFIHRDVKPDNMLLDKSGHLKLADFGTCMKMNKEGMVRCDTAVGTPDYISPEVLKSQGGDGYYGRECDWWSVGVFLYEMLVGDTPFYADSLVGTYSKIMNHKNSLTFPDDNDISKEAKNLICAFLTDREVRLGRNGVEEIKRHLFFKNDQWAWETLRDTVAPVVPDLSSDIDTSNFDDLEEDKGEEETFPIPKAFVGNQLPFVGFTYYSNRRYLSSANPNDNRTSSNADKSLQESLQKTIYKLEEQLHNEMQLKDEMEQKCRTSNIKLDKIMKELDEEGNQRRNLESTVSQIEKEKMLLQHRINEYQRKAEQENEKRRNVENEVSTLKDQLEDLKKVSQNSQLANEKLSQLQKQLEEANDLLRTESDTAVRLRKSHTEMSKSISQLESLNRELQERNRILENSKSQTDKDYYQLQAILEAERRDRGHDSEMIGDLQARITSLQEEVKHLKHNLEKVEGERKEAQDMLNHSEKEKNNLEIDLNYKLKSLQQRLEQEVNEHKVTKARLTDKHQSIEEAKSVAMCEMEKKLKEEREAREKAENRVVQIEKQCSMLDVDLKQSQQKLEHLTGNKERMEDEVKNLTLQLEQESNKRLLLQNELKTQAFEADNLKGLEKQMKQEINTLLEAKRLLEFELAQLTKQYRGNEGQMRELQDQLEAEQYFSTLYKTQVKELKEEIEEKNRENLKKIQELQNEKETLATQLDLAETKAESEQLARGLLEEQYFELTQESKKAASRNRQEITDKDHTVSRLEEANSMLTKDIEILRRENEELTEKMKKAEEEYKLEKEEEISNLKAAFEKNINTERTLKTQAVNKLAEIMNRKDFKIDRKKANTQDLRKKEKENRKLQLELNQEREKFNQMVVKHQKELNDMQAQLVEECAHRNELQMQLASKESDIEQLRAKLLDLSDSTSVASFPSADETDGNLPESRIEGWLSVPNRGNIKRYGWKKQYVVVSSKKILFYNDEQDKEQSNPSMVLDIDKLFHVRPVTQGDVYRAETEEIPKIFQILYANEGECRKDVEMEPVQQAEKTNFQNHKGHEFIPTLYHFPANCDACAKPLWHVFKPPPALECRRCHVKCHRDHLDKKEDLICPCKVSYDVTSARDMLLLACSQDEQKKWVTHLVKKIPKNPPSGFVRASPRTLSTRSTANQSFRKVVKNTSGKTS

[7] = target: off-target kinases (Homo sapiens, UniProt Q16288); settings: NTRK3 (TRKC), ZLYTE, ATP Km app
[8] = target: off-target kinases (Homo sapiens, UniProt Q16539); settings: ZLYTE
off-target kinases (Homo sapiens, UniProt Q16539), sequence (Q16539 whole entry): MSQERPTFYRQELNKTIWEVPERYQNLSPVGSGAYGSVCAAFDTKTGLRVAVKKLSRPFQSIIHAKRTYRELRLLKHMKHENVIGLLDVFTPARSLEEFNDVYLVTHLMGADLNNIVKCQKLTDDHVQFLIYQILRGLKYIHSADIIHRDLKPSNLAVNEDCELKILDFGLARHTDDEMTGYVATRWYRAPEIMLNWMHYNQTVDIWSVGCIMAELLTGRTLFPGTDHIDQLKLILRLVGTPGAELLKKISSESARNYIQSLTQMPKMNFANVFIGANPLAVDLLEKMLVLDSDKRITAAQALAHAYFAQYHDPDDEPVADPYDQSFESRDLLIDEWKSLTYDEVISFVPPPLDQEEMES

[9] = target: off-target kinases (Homo sapiens, UniProt Q86UE8); settings: TLK2, LanthaScreen Binding
off-target kinases (Homo sapiens, UniProt Q86UE8), sequence (Q86UE8 whole entry): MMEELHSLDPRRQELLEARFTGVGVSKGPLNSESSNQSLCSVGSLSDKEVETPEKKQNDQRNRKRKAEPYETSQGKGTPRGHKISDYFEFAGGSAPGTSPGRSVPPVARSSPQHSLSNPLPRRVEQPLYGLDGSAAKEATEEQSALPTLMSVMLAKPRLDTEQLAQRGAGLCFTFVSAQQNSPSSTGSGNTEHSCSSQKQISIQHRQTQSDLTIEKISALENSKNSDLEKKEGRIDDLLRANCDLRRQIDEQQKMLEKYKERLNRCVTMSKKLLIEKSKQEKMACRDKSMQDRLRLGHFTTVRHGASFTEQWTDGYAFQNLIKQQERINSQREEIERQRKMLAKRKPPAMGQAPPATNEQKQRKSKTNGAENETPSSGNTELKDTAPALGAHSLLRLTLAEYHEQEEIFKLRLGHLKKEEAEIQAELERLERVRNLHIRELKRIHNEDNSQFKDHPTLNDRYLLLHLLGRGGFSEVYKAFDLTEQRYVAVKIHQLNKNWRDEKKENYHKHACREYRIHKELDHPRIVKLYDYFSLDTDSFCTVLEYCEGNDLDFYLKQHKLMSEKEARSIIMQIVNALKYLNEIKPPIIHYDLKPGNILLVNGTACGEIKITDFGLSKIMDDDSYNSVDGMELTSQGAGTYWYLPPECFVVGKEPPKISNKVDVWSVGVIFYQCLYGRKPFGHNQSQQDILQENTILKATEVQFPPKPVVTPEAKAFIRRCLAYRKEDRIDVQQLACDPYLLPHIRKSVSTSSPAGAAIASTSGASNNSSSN

[10] = target: off-target kinases (Homo sapiens, UniProt Q9Y572); settings: RIPK3, LanthaScreen Binding
off-target kinases (Homo sapiens, UniProt Q9Y572), sequence (Q9Y572 whole entry): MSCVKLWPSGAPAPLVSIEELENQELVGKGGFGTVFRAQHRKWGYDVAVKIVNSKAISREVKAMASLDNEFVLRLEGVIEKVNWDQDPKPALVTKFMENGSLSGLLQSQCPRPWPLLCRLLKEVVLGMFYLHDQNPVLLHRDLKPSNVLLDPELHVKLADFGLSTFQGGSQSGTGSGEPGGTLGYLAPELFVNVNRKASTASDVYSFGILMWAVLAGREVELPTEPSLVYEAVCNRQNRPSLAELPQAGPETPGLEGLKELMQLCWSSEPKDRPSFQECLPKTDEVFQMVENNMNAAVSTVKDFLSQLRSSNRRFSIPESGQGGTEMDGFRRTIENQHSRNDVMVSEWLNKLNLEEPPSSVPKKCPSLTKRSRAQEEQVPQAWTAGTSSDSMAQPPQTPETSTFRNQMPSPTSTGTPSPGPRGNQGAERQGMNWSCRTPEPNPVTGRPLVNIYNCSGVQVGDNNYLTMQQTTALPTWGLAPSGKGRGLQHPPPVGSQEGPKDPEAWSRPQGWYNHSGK

Q: For `N#Cc1cc(-c2ncnc(Nc3ccc(N4CCN(C5COC5)CC4)cc3)n2)ccc1OC1CCOCC1` [Compound 1, 5-(4-((4-(4-(oxetan-3-yl)piperazin-1-yl)phenyl)amino)-1,3,5-triazin-2-yl)-2-((tetrahydro-2H-pyran-4-yl)oxy)benzonitrile], which inhibition ([1]; read-out: % Inhibition 1) is on record?
A: 18%

Q: What about the inhibition ([1]; read-out: % Inhibition 2) of the same molecule?
A: 19%

Q: What about the inhibition ([1]; read-out: % Inhibition Avg) of the same molecule?
A: 18%

Q: And the inhibition ([2]; read-out: % Inhibition 1)?
A: 98%

Q: What about the inhibition ([2]; read-out: % Inhibition 2) of the same molecule?
A: 94%

Q: And the inhibition ([2]; read-out: % Inhibition Avg)?
A: 96%

Q: What about the inhibition ([3]; LanthaScreen Binding, read-out: % Inhibition 1) of the same molecule?
A: 57%

Q: What about the inhibition ([3]; LanthaScreen Binding, read-out: % Inhibition 2) of the same molecule?
A: 56%

Q: What about the inhibition ([3]; LanthaScreen Binding, read-out: % Inhibition Avg) of the same molecule?
A: 57%

Q: What about the inhibition ([3]; ZLYTE, ATP 100, read-out: % Inhibition 1) of the same molecule?
A: 33%

Q: And the inhibition ([3]; ZLYTE, ATP 100, read-out: % Inhibition 2)?
A: 18%

Q: And the inhibition ([3]; ZLYTE, ATP 100, read-out: % Inhibition Avg)?
A: 25%

Q: And the inhibition ([4]; read-out: % Inhibition 1)?
A: 17%

Q: What about the inhibition ([4]; read-out: % Inhibition 2) of the same molecule?
A: 14%

Q: What about the inhibition ([4]; read-out: % Inhibition Avg) of the same molecule?
A: 15%

Q: What about the inhibition ([5]; read-out: % Inhibition 1) of the same molecule?
A: 12%

Q: And the inhibition ([5]; read-out: % Inhibition 2)?
A: 9%

Q: What about the inhibition ([5]; read-out: % Inhibition Avg) of the same molecule?
A: 11%

Q: What about the inhibition ([6]; read-out: % Inhibition 1) of the same molecule?
A: 6%

Q: What about the inhibition ([6]; read-out: % Inhibition 2) of the same molecule?
A: 14%

Q: What about the inhibition ([6]; read-out: % Inhibition Avg) of the same molecule?
A: 10%

Q: What about the inhibition ([7]; read-out: % Inhibition 1) of the same molecule?
A: 17%

Q: And the inhibition ([7]; read-out: % Inhibition 2)?
A: 19%

Q: And the inhibition ([7]; read-out: % Inhibition Avg)?
A: 18%

Q: What about the inhibition ([8]; MAPK14 (p38 alpha) Direct, ATP Km app, read-out: % Inhibition 1) of the same molecule?
A: 2%

Q: What about the inhibition ([8]; MAPK14 (p38 alpha) Direct, ATP Km app, read-out: % Inhibition 2) of the same molecule?
A: 1%

Q: And the inhibition ([8]; MAPK14 (p38 alpha) Direct, ATP Km app, read-out: % Inhibition Avg)?
A: 1%

Q: What about the inhibition ([8]; MAPK14 (p38 alpha), ATP 100, read-out: % Inhibition 1) of the same molecule?
A: -1%

Q: And the inhibition ([8]; MAPK14 (p38 alpha), ATP 100, read-out: % Inhibition 2)?
A: 9%

Q: What about the inhibition ([8]; MAPK14 (p38 alpha), ATP 100, read-out: % Inhibition Avg) of the same molecule?
A: 4%

Q: And the inhibition ([9]; read-out: % Inhibition 1)?
A: 84%

Q: And the inhibition ([9]; read-out: % Inhibition 2)?
A: 81%

Q: What about the inhibition ([9]; read-out: % Inhibition Avg) of the same molecule?
A: 83%

Q: What about the inhibition ([10]; read-out: % Inhibition 1) of the same molecule?
A: -1%

Q: And the inhibition ([10]; read-out: % Inhibition 2)?
A: 1%

Q: And the inhibition ([10]; read-out: % Inhibition Avg)?
A: 0%
